{"source": "patent US20100261606A1", "about": "“Homogeneous and Storage-Stable Mixtures of Different Active Plant Protection Agent Granule Particles” (priority 2007, published 2010)", "type": "physicochemical", "source_text": "This therefore allows the use according to the invention of these mixture packs for plant protectant active substances which had previously shown to be “incompatible” in mixture with other active substances on or in a granule particle. Determining the “incompatibility” of individual active substances in an active substance mixture is effected by simply measuring the remaining residual amounts of active substance after a predetermined storage period. The reasons for this active substance “incompatibility” with other active substances may be based on a very wide range of factors. However, it poses a serious problem for formulation research, when active substance mixtures required by the market cannot be realized due to this problem. [table]", "key": {"[1]": {"conditions": "in Granule coformulation (2), prior art, n = 1"}, "[2]": {"conditions": "in Granule mixture (1), according to the invention, n = 3"}}, "note": "Values joined by “and” are separate entries in the source; they are usually repeats but may differ in a detail not shown here. Equal values may be shown once. Read-outs that look alike come from different tables or passages of the source."}
{"smiles": "O=C(Nc1ccc(F)cc1F)c1cccnc1Oc1cccc(C(F)(F)F)c1", "note": "[Diflufenican, diflufenican]", "values": [{"measurement": "Absolute content after 2 months' storage at 40° C.", "setting": "[1]", "value": 3.79, "unit": "% by weight"}, {"measurement": "Absolute content at the beginning of the storage", "setting": "[1]", "value": 3.79, "unit": "% by weight"}, {"measurement": "Percentage change after 2 months' storage at 40° C.", "setting": "[1]", "value": 0.0, "unit": "%"}, {"measurement": "Absolute content after 2 months' storage at 40° C.", "setting": "[2]", "value": "12.8 % by weight and 12.1 % by weight"}, {"measurement": "Absolute content at the beginning of the storage", "setting": "[2]", "value": "12.5 % by weight and 12.3 % by weight and 12.1 % by weight"}]}
{"smiles": "CC(C)N(C(=O)COc1nnc(C(F)(F)F)s1)c1ccc(F)cc1", "note": "[Flufenacet, flufenacet]", "values": [{"measurement": "Absolute content after 2 months' storage at 40° C.", "setting": "[1]", "value": 12.10, "unit": "% by weight"}, {"measurement": "Absolute content at the beginning of the storage", "setting": "[1]", "value": 12.40, "unit": "% by weight"}, {"measurement": "Percentage change after 2 months' storage at 40° C.", "setting": "[1]", "value": "−2.4", "unit": "%"}, {"measurement": "Absolute content after 2 months' storage at 40° C.", "setting": "[2]", "value": "39.2 % by weight and 38.3 % by weight and 39.9 % by weight"}, {"measurement": "Absolute content at the beginning of the storage", "setting": "[2]", "value": "39.8 % by weight and 40.0 % by weight and 40.6 % by weight"}, {"measurement": "Percentage change after 2 months' storage at 40° C.", "setting": "[2]", "value": "−1.5% and −4.3% and −1.7%"}]}
{"smiles": "COc1nc(C)nc(NC(=O)NS(=O)(=O)c2cc(I)ccc2C(=O)O)n1", "note": "[Iodosulfuron, iodosulfuron]", "values": [{"measurement": "Degradation during storage (in words)", "value": "severe degradation"}, {"measurement": "Absolute content after 2 months' storage at 40° C.", "setting": "[1]", "value": 0.039, "unit": "% by weight"}, {"measurement": "Absolute content at the beginning of the storage", "setting": "[1]", "value": 0.135, "unit": "% by weight"}, {"measurement": "Percentage change after 2 months' storage at 40° C.", "setting": "[1]", "value": "−71.0", "unit": "%"}, {"measurement": "Absolute content after 2 months' storage at 40° C.", "setting": "[2]", "value": "0.367 % by weight and 0.360 % by weight and 0.382 % by weight"}, {"measurement": "Absolute content at the beginning of the storage", "setting": "[2]", "value": "0.330 % by weight and 0.312 % by weight and 0.378 % by weight"}, {"measurement": "Change in content during storage (in words)", "setting": "in granule mixture (according to the invention)", "value": "no appreciable change"}]}
